One compound from ChEMBL document CHEMBL4118132, “Novel 5-methyl-2-phenylphenanthridium derivatives as FtsZ-targeting antibacterial agents from structural simplification of natural product sanguinarine” (2018) can be followed below.

As usually defined, the MIC is the lowest concentration found to suppress growth. Read a low MIC as inhibition by little substance.

The structures appear in SMILES notation. Activity calls are given as the source filed them. No cut-off for these calls is given here.

Assay [1] concerns Staphylococcus aureus. The assay can be described thus: Bactericidal activity against penicillin-susceptible Staphylococcus aureus ATCC 25923 assessed as bacterial levels at 32 ug/ml after 6 hrs by time-kill assay (reference value: 6.13 to 7.54 log10CFU/ml). The class given is functional.
Another assay relates to Escherichia coli. The assay can be described thus: Antibacterial activity against penicillin-susceptible Escherichia coli ATCC 25922 after 24 hrs by broth microdilution method. It counts as functional. Particulars: ATCC 25922, 24 h. (In general: In broth dilution the organism is exposed to a series of concentrations in liquid medium.)
Assay [2] has as its system Staphylococcus aureus. The experiment in a line: Bactericidal activity against penicillin-susceptible Staphylococcus aureus ATCC 25923 assessed as bacterial levels at 32 ug/ml after 1 hr by time-kill assay (reference value: 6.13 to 6.14 log10CFU/ml). It counts as functional.
In assay [3] the test system is Staphylococcus aureus. The experiment in a line: Potency index, ratio of oxacillin sodium MIC to test compound MIC for methicillin-resistant Staphylococcus aureus ATCC 43300. The class given is functional.
Assay [4] relates to Staphylococcus aureus. The experiment in a line: Bactericidal activity against penicillin-susceptible Staphylococcus aureus ATCC 25923 assessed as bacterial levels at 32 ug/ml after 12 hrs by time-kill assay (reference value: 6.13 to 8.01 log10CFU/ml). The class given is functional.
In assay [5] the test system is Staphylococcus aureus. The experiment in a line: Bactericidal activity against penicillin-susceptible Staphylococcus aureus ATCC 25923 assessed as bacterial levels at 8 ug/ml after 12 hrs by time-kill assay (reference value: 6.13 to 8.01 log10CFU/ml). The class given is functional.
In assay [6] the target is T1, Cell division protein FtsZ (Staphylococcus aureus) (UniProt P0A031).
T1 sequence (whole entry): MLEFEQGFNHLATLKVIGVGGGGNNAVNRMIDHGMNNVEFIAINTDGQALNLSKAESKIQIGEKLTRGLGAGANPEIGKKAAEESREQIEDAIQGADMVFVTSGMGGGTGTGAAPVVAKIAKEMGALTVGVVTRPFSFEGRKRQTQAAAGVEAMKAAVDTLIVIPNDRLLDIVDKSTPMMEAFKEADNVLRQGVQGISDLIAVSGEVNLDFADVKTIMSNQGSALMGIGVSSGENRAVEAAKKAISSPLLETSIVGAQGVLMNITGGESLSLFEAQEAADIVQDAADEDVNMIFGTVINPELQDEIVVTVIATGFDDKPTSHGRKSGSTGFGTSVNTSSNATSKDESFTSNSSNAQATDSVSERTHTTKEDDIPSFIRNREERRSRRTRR
The experiment in a line: Inhibition of FtsZ in penicillin-susceptible Staphylococcus aureus ATCC 25923 assessed as increase in length of bacteria at 0.125 ug/ml after 5 hrs by phase-contrast light microscopic method.

The subject of another assay is Streptococcus pyogenes. The assay can be described thus: Potency index, ratio of oxacillin sodium MIC to test compound MIC for penicillin-susceptible Streptococcus pyogenes. The class given is functional.
Assay [7] relates to Staphylococcus aureus. The assay can be described thus: Potency index, ratio of oxacillin sodium MIC to test compound MIC for penicillin-susceptible Staphylococcus aureus ATCC 25923. It counts as functional.
Assay [8] relates to Staphylococcus aureus. The experiment in a line: Bactericidal activity against penicillin-susceptible Staphylococcus aureus ATCC 25923 assessed as bacterial levels at 16 ug/ml after 24 hrs by time-kill assay (reference value: 6.13 to 8.34 log10CFU/ml). It counts as functional.
For assay [9], the system named is Staphylococcus aureus. The assay can be described thus: Bactericidal activity against penicillin-susceptible Staphylococcus aureus ATCC 25923 assessed as bacterial levels at 16 ug/ml after 2 hrs by time-kill assay (reference value: 6.13 to 6.17 log10CFU/ml). The class given is functional.
Assay [10] relates to Staphylococcus aureus. The assay can be described thus: Potency index, ratio of oxacillin sodium MIC to test compound MIC for penicillin-resistant Staphylococcus aureus clinical isolate. The class given is functional.
In assay [11] the test system is Staphylococcus aureus. The assay can be described thus: Bactericidal activity against penicillin-susceptible Staphylococcus aureus ATCC 25923 assessed as bacterial levels at 32 ug/ml after 2 hrs by time-kill assay (reference value: 6.13 to 6.17 log10CFU/ml). It counts as functional.

For the compound `Cc1cc(-c2ccc(C(F)(F)F)cc2)cc2c3ccccc3c[n+](C)c12.[Cl-]`, the Activity came to 0 log10CFU/ml in the assay on Staphylococcus aureus [1]; 5.57 log10CFU/ml with Staphylococcus aureus [2]; 0 log10CFU/ml with Staphylococcus aureus [4]; 5.78 log10CFU/ml with Staphylococcus aureus [5]; 0 log10CFU/ml in the assay on Staphylococcus aureus [8]; 6 log10CFU/ml with Staphylococcus aureus [9]. For the same compound, in the assay on Staphylococcus aureus [11], the Activity was 5.18 log10CFU/ml. Further, the MIC in the assay with Escherichia coli is > 64 µg/mL. Besides, the Ratio was 256 in the assay with Staphylococcus aureus [3], 1 in the assay on Streptococcus pyogenes, 67 in the assay on Staphylococcus aureus [7] and 256 in the assay on Staphylococcus aureus [10]. The inhibition entry in [6] is “Active”.
